Assay results from US10517889B2, “Modulators of SMAD7 expression” (Ionis Pharmaceuticals, Inc., priority 2017, dated 2019).
Strand notation (5' to 3'): a small letter for the sugar, then the base; units joined by * are phosphorothioate-linked, units joined directly phosphodiester-linked; [ ] holds rarer units or linkages, { } end groups; capitals alone tell only the bases. e = 2'-O-(2-methoxyethyl) (MOE); [5mC] = 5-methylcytosine; d = 2'-deoxy (DNA)

System: human SMAD7 mRNA
Experiment: Antisense inhibition of human SMAD7 mRNA expression in Hep3B cells by 5-10-5 MOE gapmers, single concentration, electroporation, RT-PCR (Example 1, Study 1 and 2)
Type: cell-based
How it was run: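 Hep3B cells (20,000/well) electroporated with 5-10-5 MOE gapmer at 5,000 nM or 15,000 nM for approximately 24 h. SMAD7 mRNA quantified by real-time PCR with primer probe set RTS5062 and normalized to RIBOGREEN total RNA. Values are percent inhibition relative to untreated controls.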

[1] = Study 2, electroporation with 15,000 nM antisense oligonucleotide, 5-10-5 MOE gapmers targeting SEQ ID NO: 1 and 2
[2] = electroporation, 15,000 nM, approximately 24 hours, relative to untreated control cells, gapmers targeting SEQ ID NO: 1 and 2
[3] = electroporation, 15,000 nM antisense oligonucleotide (Study 2), 5-10-5 MOE gapmers targeting SEQ ID NO: 1 and 2
[4] = electroporation with 15,000 nM antisense oligonucleotide (Study 2), 5-10-5 MOE gapmers targeting SEQ ID NO: 1 and 2

Substance: 771437 (eG*e[5mC]*e[5mC]*eT*eG*dG*dA*dG*d[5mC]*dA*dG*d[5mC]*dA*dG*d[5mC]*eT*e[5mC]*e[5mC]*eA*eG; antisense) [compound 771437]
- % Inhibition [1]: 0%

Substance: 771438 (e[5mC]*e[5mC]*eA*e[5mC]*eG*dG*d[5mC]*d[5mC]*dT*dG*dG*dA*dG*d[5mC]*dA*eG*e[5mC]*eA*eG*e[5mC]; antisense) [compound 771438]
- % inhibition of SMAD7 mRNA expression [2]: 26%

Substance: 771440 (e[5mC]*eG*eG*e[5mC]*eT*dG*d[5mC]*dG*d[5mC]*dA*dG*dG*d[5mC]*dT*dG*e[5mC]*eG*e[5mC]*eG*e[5mC]; antisense) [compound 771440]
- % Inhibition [1]: 48%

Substance: 771442 (e[5mC]*eT*e[5mC]*eT*eT*dG*dA*d[5mC]*dT*dT*d[5mC]*d[5mC]*dG*dA*dG*eG*eA*eA*eT*eG; antisense) [compound 771442]
- % inhibition of SMAD7 mRNA expression [3]: 22%

Substance: 771443 (eG*e[5mC]*e[5mC]*eT*e[5mC]*dT*dT*dG*dA*d[5mC]*dT*dT*d[5mC]*d[5mC]*dG*eA*eG*eG*eA*eA; antisense) [compound 771443]
- % inhibition of SMAD7 mRNA expression [3]: 30%

Substance: 771445 (eA*e[5mC]*eA*eG*e[5mC]*d[5mC]*dT*d[5mC]*dT*dT*dG*dA*d[5mC]*dT*dT*e[5mC]*e[5mC]*eG*eA*eG; antisense) [compound 771445]
- % Inhibition [1]: 10%

Substance: 771446 (e[5mC]*eA*e[5mC]*eA*eG*d[5mC]*d[5mC]*dT*d[5mC]*dT*dT*dG*dA*d[5mC]*dT*eT*e[5mC]*e[5mC]*eG*eA; antisense) [compound 771446]
- % inhibition of SMAD7 mRNA expression [2]: 55%

Substance: 771447 (eA*eA*e[5mC]*eA*e[5mC]*dA*dG*d[5mC]*d[5mC]*dT*d[5mC]*dT*dT*dG*dA*e[5mC]*eT*eT*e[5mC]*e[5mC]; antisense) [compound 771447]
- % Inhibition [1]: 19%

Substance: 771448 (eG*eA*eG*eT*e[5mC]*dG*dG*d[5mC]*dT*dA*dA*dG*dG*dT*dG*eA*eT*eG*eG*eG; antisense) [compound 771448]
- % Inhibition [1]: 29%

Substance: 771449 (eT*e[5mC]*eG*e[5mC]*eA*dG*dA*dG*dT*d[5mC]*dG*dG*d[5mC]*dT*dA*eA*eG*eG*eT*eG; antisense) [compound 771449]
- % Inhibition of SMAD7 mRNA [4]: 4%
- % inhibition of SMAD7 mRNA expression [3]: 0%

Substance: 771450 (antisense e[5mC]*eT*eA*eG*eT*dT*d[5mC]*dG*d[5mC]*dA*dG*dA*dG*dT*d[5mC]*eG*eG*e[5mC]*eT*eA) [compound 771450]
- % inhibition of SMAD7 mRNA expression [3]: 45%

Substance: 771451 (antisense eA*eG*eA*e[5mC]*eT*d[5mC]*dT*dA*dG*dT*dT*d[5mC]*dG*d[5mC]*dA*eG*eA*eG*eT*e[5mC]) [compound 771451]
- % inhibition of SMAD7 mRNA expression [4]: 15%

Substance: 771452 (antisense eG*eG*eT*eA*eT*d[5mC]*dT*dG*dG*dA*dG*dT*dA*dA*dG*eG*eA*eG*eG*eG) [compound 771452]
- % Inhibition [1]: 55%
- % inhibition of SMAD7 mRNA expression (electroporation, 5,000 nM, approximately 24 hours, relative to untreated control cells, gapmers targeting SEQ ID NO: 1 and 2): 25%

Substance: 771453 (antisense eA*eT*e[5mC]*eT*eG*dG*dA*d[5mC]*dA*dG*dT*d[5mC]*dT*dG*d[5mC]*eA*eG*eT*eT*eG) [compound 771453]
- % inhibition of SMAD7 mRNA expression [1]: 38%

Substance: 771462 (antisense e[5mC]*eT*eG*eG*eA*d[5mC]*dA*d[5mC]*dA*dG*dT*dA*dG*dA*dG*e[5mC]*e[5mC]*eT*e[5mC]*e[5mC]) [compound 771462]
- % inhibition of SMAD7 mRNA expression [2]: 31%

Substance: 771463 (antisense eG*eG*e[5mC]*eT*e[5mC]*d[5mC]*dT*dG*dG*dA*d[5mC]*dA*d[5mC]*dA*dG*eT*eA*eG*eA*eG) [compound 771463]
- % Inhibition [1]: 10%

Substance: 771465 (antisense eA*eT*e[5mC]*e[5mC]*eA*dG*dA*dG*dA*dG*dG*dG*d[5mC]*dT*d[5mC]*e[5mC]*eT*eG*eG*eA) [compound 771465]
- % Inhibition of SMAD7 mRNA [4]: 16%
- % inhibition of SMAD7 mRNA expression [3]: 0%

Substance: 771466 (antisense eA*eA*eG*eA*eT*dA*dT*d[5mC]*d[5mC]*dA*dG*dA*dG*dA*dG*eG*eG*e[5mC]*eT*e[5mC]) [compound 771466]
- % inhibition of SMAD7 mRNA expression [3]: 38%

Substance: 771467 (antisense e[5mC]*eA*eT*eA*eG*dA*dA*dG*dA*dT*dA*dT*d[5mC]*d[5mC]*dA*eG*eA*eG*eA*eG) [compound 771467]
- % inhibition of SMAD7 mRNA expression [3]: 11%

Substance: 771469 (antisense eT*eT*e[5mC]*eT*eG*d[5mC]*dA*d[5mC]*d[5mC]*dA*dG*d[5mC]*dT*dG*dA*e[5mC]*eT*e[5mC]*eT*eT) [compound 771469]
- % inhibition of SMAD7 mRNA expression [1]: 13%

Substance: 771470 (antisense eG*e[5mC]*eA*e[5mC]*e[5mC]*dT*dT*d[5mC]*dT*dG*d[5mC]*dA*d[5mC]*d[5mC]*dA*eG*e[5mC]*eT*eG*eA) [compound 771470]
- % inhibition of SMAD7 mRNA expression [2]: 56%

Substance: 771471 (antisense eG*e[5mC]*eT*e[5mC]*e[5mC]*dG*d[5mC]*dA*d[5mC]*d[5mC]*dT*dT*d[5mC]*dT*dG*e[5mC]*eA*e[5mC]*e[5mC]*eA) [compound 771471]
- % inhibition of SMAD7 mRNA expression [1]: 43%

Substance: 771472 (antisense eA*eT*eT*eT*eT*dG*d[5mC]*dT*d[5mC]*d[5mC]*dG*d[5mC]*dA*d[5mC]*d[5mC]*eT*eT*e[5mC]*eT*eG) [compound 771472]
- % inhibition of SMAD7 mRNA expression [1]: 0%

Substance: 771473 (antisense eA*eG*e[5mC]*e[5mC]*eG*dA*dT*dT*dT*dT*dG*d[5mC]*dT*d[5mC]*d[5mC]*eG*e[5mC]*eA*e[5mC]*e[5mC]) [compound 771473]
- % Inhibition of SMAD7 mRNA [4]: 37%
- % inhibition of SMAD7 mRNA expression [3]: 9%

Substance: 771475 (antisense e[5mC]*eG*eT*e[5mC]*eA*dG*d[5mC]*dT*dG*dG*dA*dT*dG*d[5mC]*d[5mC]*eG*e[5mC]*eA*eG*e[5mC]) [compound 771475]
- % inhibition of SMAD7 mRNA expression [3]: 26%

Substance: 771477 (antisense eT*eG*e[5mC]*eG*eG*dT*dT*dG*dT*dA*d[5mC]*dA*d[5mC]*d[5mC]*d[5mC]*eA*e[5mC]*eA*e[5mC]*eA) [compound 771477]
- % inhibition of SMAD7 mRNA expression [1]: 20%

Substance: 771478 (antisense e[5mC]*eA*e[5mC]*e[5mC]*eT*dT*dG*dT*dG*dT*dA*d[5mC]*d[5mC]*dA*dA*e[5mC]*eA*eG*e[5mC]*eG) [compound 771478]
- % inhibition of SMAD7 mRNA expression [2]: 53%

Substance: 771480 (antisense eA*eG*e[5mC]*e[5mC]*eT*dT*dG*dA*dT*dG*dG*dA*dG*dA*dA*eA*e[5mC]*e[5mC]*eG*eG) [compound 771480]
- % inhibition of SMAD7 mRNA expression [1]: 46%

Substance: 771481 (antisense eG*e[5mC]*eA*eG*eG*d[5mC]*dT*dG*dT*dA*d[5mC]*dG*d[5mC]*d[5mC]*dT*eT*e[5mC]*eT*e[5mC]*eG) [compound 771481]
- % Inhibition of SMAD7 mRNA [4]: 26%
- % inhibition of SMAD7 mRNA expression [3]: 0%

Substance: 771482 (antisense e[5mC]*e[5mC]*eG*e[5mC]*eT*dG*d[5mC]*dA*dG*dG*d[5mC]*dT*dG*dT*dA*e[5mC]*eG*e[5mC]*e[5mC]*eT) [compound 771482]
- % inhibition of SMAD7 mRNA expression [3]: 38%

Substance: 771483 (antisense eA*e[5mC]*eG*eG*e[5mC]*dT*dG*d[5mC]*dT*dG*d[5mC]*dA*dT*dA*dA*eA*e[5mC]*eT*e[5mC]*eG) [compound 771483]
- % inhibition of SMAD7 mRNA expression [3]: 22%

Substance: 771485 (antisense eA*eA*eG*e[5mC]*e[5mC]*d[5mC]*dG*dT*d[5mC]*d[5mC]*dA*d[5mC]*dG*dG*d[5mC]*eT*eG*e[5mC]*eT*eG) [compound 771485]
- % inhibition of SMAD7 mRNA expression [1]: 15%

Substance: 771486 (antisense e[5mC]*eG*eG*eT*eA*dA*dA*dG*d[5mC]*d[5mC]*d[5mC]*dG*dT*d[5mC]*d[5mC]*eA*e[5mC]*eG*eG*e[5mC]) [compound 771486]
- % inhibition of SMAD7 mRNA expression [2]: 52%

Substance: 771488 (antisense e[5mC]*eT*eG*eA*eT*d[5mC]*dT*dG*d[5mC]*dA*d[5mC]*dG*dG*dT*dA*eA*eA*eG*e[5mC]*e[5mC]) [compound 771488]
- % inhibition of SMAD7 mRNA expression [1]: 53%

Substance: 771489 (antisense e[5mC]*eA*eA*eA*eG*d[5mC]*dT*dG*dA*dT*d[5mC]*dT*dG*d[5mC]*dA*e[5mC]*eG*eG*eT*eA) [compound 771489]
- % Inhibition of SMAD7 mRNA [4]: 34%
- % inhibition of SMAD7 mRNA expression [3]: 27%

Substance: 771490 (antisense e[5mC]*eT*eT*e[5mC]*eA*d[5mC]*dA*dA*dA*dG*d[5mC]*dT*dG*dA*dT*e[5mC]*eT*eG*e[5mC]*eA) [compound 771490]
- % inhibition of SMAD7 mRNA expression [3]: 44%

Substance: 771491 (antisense eG*eG*e[5mC]*e[5mC]*e[5mC]*d[5mC]*dA*dG*d[5mC]*d[5mC]*d[5mC]*dT*dT*d[5mC]*dA*e[5mC]*eA*eA*eA*eG) [compound 771491]
- % inhibition of SMAD7 mRNA expression [3]: 39%

Substance: 771493 (antisense e[5mC]*eG*eG*eG*e[5mC]*dA*dG*d[5mC]*dT*dG*d[5mC]*dT*dG*dA*dT*eG*eA*eA*e[5mC]*eT) [compound 771493]
- % inhibition of SMAD7 mRNA expression [1]: 17%

Substance: 771494 (antisense e[5mC]*eA*eG*e[5mC]*eA*d[5mC]*dG*dG*dG*d[5mC]*dA*dG*d[5mC]*dT*dG*e[5mC]*eT*eG*eA*eT) [compound 771494]
- % inhibition of SMAD7 mRNA expression [2]: 20%

Substance: 771495 (antisense e[5mC]*eT*eA*eG*e[5mC]*d[5mC]*dA*dG*d[5mC]*dA*d[5mC]*dG*dG*dG*d[5mC]*eA*eG*e[5mC]*eT*eG) [compound 771495]
- % inhibition of SMAD7 mRNA expression [1]: 18%

Substance: 771496 (antisense eT*eG*eA*e[5mC]*e[5mC]*dT*d[5mC]*dT*dA*dG*d[5mC]*d[5mC]*dA*dG*d[5mC]*eA*e[5mC]*eG*eG*eG) [compound 771496]
- % inhibition of SMAD7 mRNA expression [1]: 20%

Substance: 771497 (antisense eG*eA*eA*eG*eA*dT*dG*dA*d[5mC]*d[5mC]*dT*d[5mC]*dT*dA*dG*e[5mC]*e[5mC]*eA*eG*e[5mC]) [compound 771497]
- % Inhibition of SMAD7 mRNA [4]: 25%
- % inhibition of SMAD7 mRNA expression [3]: 0%
